For orientation: melting point means the temperature, or range, at which the solid turns liquid. For orientation: bioavailability means the share of a dose that reaches the circulation, judged against a reference dose that is usually intravenous.

Data set [1] concerns the target T1, P2X7 receptor (Homo sapiens, UniProt Q99572).
T1 construct: 200 μl of a suspension of THP-1 cells; endogenous in cells; host or cells: THP-1 cells
T1 sequence (Q99572 1-595): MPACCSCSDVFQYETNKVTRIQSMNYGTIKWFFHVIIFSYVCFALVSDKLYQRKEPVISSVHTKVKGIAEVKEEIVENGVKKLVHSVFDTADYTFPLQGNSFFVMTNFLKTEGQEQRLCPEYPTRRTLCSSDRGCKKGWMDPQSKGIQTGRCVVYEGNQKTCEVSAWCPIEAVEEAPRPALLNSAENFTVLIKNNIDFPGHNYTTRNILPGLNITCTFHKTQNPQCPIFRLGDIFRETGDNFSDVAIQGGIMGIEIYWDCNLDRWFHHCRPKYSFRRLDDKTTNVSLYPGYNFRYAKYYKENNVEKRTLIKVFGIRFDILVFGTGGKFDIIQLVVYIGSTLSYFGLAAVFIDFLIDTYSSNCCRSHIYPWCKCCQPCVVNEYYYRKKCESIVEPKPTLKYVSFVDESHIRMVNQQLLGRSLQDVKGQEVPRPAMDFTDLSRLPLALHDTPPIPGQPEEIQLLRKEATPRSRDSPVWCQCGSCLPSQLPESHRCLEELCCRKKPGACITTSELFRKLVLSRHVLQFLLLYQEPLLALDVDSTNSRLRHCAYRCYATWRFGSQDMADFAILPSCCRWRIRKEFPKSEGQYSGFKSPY
Nature of the data set: P2X7 assay (bbATP-induced ethidium bromide fluorescence in THP-1 cells). As to conditions: 10^-5M bbATP agonist, read-out: P2X7 pIC50 (converted). The data set is classed as cell-based. From the text:
Certain compounds such as benzoylbenzoyl adenosine triphosphate (bbATP) are known to be agonists of the P2X7 receptor, effecting the formation of pores in the plasma membrane (Drug Development Research (1996), 37(3), p. 126). Consequently, when the receptor is activated using bbATP in the presence of ethidium bromide (a fluorescent DNA probe), an increase in the fluorescence of intracellular DNA-bound ethidium bromide is observed. The increase in fluorescence can be used as a measure of P2X7 receptor activation and therefore to quantify the effect of a compound on the P2X7 receptor.
In this manner, each of the title compounds of the Examples was tested for antagonist activity at the P2X7 receptor. Thus, the test was performed in 96-well flat bottomed microtitre plates, the wells being filled with 250 μl of test solution comprising 200 μl of a suspension of THP-1 cells (2.5×10^6 cells/ml) containing 10^−4M ethidium bromide, 25 μl of a high potassium buffer solution containing 10^−5M bbATP, and 25 μl of the high potassium buffer solution containing concentrations of test compound typically from 30 μM-0.001 μM. The plate was covered with a plastics sheet and incubated at 37° C. for one hour. The plate was then read in a Perkin-Elmer fluorescent plate reader, excitation 520 nm, emission 595 nm, slit widths: Ex 15 nm, Em 20 nm. For the purposes of comparison, bbATP (a P2X7 receptor agonist) and pyridoxal 5-phosphate (a P2X7 receptor antagonist) were used separately in the test as controls. From the readings obtained, a pIC50 figure was calculated for each test compound, this figure being the negative logarithm of the concentration of test compound necessary to reduce the bbATP agonist activity by 50%.

The target in data set [2] is T2, ion channel subunit encoded by the human ether-a-go-go-related gene (hERG) (Homo sapiens, UniProt Q12809).
T2 construct: expressed in transfected cells; host or cells: HEK (human embryonic kidney) cells, membrane preparation
T2 sequence (Q12809 whole entry): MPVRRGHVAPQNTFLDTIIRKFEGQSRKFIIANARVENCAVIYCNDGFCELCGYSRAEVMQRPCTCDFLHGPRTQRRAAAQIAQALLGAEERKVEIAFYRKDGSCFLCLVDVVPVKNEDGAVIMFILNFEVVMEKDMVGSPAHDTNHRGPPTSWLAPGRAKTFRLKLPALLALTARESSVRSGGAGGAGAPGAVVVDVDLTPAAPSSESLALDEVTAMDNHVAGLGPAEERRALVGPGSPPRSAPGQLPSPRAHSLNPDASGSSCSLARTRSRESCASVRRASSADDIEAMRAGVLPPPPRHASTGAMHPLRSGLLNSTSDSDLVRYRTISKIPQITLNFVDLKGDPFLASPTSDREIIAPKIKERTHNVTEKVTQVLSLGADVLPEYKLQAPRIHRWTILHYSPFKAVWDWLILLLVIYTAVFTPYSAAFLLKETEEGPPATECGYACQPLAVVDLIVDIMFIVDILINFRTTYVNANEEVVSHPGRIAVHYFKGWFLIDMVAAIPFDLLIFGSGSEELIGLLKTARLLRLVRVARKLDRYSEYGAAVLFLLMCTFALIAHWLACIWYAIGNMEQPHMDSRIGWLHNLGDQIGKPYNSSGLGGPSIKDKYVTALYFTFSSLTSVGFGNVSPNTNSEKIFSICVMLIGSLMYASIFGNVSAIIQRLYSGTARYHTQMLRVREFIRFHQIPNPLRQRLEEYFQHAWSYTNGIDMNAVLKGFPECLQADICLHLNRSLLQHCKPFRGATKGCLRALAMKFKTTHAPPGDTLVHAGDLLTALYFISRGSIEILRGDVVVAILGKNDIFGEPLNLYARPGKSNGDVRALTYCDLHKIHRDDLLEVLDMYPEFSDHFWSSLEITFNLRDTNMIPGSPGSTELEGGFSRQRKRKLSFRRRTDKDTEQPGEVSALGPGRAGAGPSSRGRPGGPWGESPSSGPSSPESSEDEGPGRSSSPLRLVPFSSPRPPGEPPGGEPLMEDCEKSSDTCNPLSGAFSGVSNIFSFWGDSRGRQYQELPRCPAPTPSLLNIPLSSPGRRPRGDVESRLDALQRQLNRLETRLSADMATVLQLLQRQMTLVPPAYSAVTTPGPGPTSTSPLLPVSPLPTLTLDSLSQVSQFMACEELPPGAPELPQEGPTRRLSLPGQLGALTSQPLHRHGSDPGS
Nature of the data set: hERG binding protocol (radioligand competition, HEK cell membranes expressing hERG). As to conditions: for IC50: a 'less than' figure indicates <50% inhibition at the quoted concentration, the highest tested, read-out: hERG pIC50 (converted); for P2X7:hERG Ratio: ratio of P2X7:hERG affinity. As to the method:
The hERG assay was performed according to the procedure described in WO2005/037052. The affinity (pIC50) of compounds for the ion channel subunit encoded by the human ether-a-go-go-related gene (hERG) gene was determined by competition binding of radioligand 3,7-Bis[2-(4-nitro[3,5-^3H]phenyl)ethyl]-3,7-diazabicyclo[3.3.1]nonane to HEK (human embryonic kidney) cell membranes expressing hERG, in a filter wash format.
Membranes were incubated for 3 hours at room temperature with serial dilutions of the test compounds, radioligand 3,7-Bis[2-(4-nitro[3,5-^3H]phenyl)ethyl]-3,7-diazabicyclo[3.3.1]nonane at 1 nM final concentration, and assay buffer (10 mM HEPES, 130 mM NaCl, 5 mM KCl, 1 mM EGTA, 0.8 mM MgCl2, pH 7.4). The assay was conducted in a final volume of 200 μL, in the presence of 1% (v/v) dimethyl sulphoxide. Non-specific binding was determined by measuring the binding of 3,7-Bis[2-(4-nitro[3,5-^3H]phenyl)ethyl]-3,7-diazabicyclo[3.3.1]nonane in the presence of 10 […]. During this incubation GF/B filter plates were immersed in coating solution 0.3% (v/v) Polyethylenimine and 0.2% (w/v) BSA). Following incubation assay plates were harvested onto precoated GF/B filter plates using a Tomtec harvester.
The pIC50, defined as the negative logarithm of the concentration of compound required for 50% reduction in 3,7-Bis[2-(4-nitro[3,5-^3H]phenyl)ethyl]-3,7-diazabicyclo[3.3.1]nonane binding, was determined. A ‘less than’ figure indicates <50% inhibition at the quoted concentration, this being the highest concentration tested.
(hERG is a cardiac potassium channel; its block is linked to QT prolongation.)

Data set [3] in a line: Bioavailability - Rat PK. The data set is classed as in vivo, male Sprague Dawley rats. Conditions: male, Sprague Dawley, plasma, po 5 mg/kg vs iv 3 mg/kg. As to the method: Pharmacokinetic parameters and concepts are used in DMPK to describe the fate of a compound in the body. The distribution and excretion of a compound are reflected in the plasma concentration-time profile. By appropriate dosing, sampling and analysis key parameters (clearance, volume, half-life, bioavailability etc.) can be determined.
Test compounds were typically dosed intravenously to the right lateral tail vein of male Sprague Dawley rats at a dose level of 3 mg/kg (1 ml/kg) in DMA:water (40:60 v/v). Rats were dosed orally at a dose level of 5 mg/kg (2 ml/kg) in 0.5% hydroxypropylmethylcellulose (HPMC, w/v)/0.1% Tween 80 (v/v) in water). […]
To determine the plasma levels of test compound, 50 μl of methanol was added to 50 μl of each of the test samples, whilst 40 μl of methanol was added to the 50 μl aliquots of control plasma containing 10 μl spikes of authentic standard used to create a calibration line and QCs. […] The resultant supernatants were analysed by HPLC-MSMS after an appropriate, selective and sensitive method had been created by optimizing both cone voltage and collision energy.
Pharmacokinetic parameters were derived from concentration-time using non-compartmental analysis in WinNonLin®. Bioavailability was calculated using the following equation F=AUCPO*DoseIV/AUCIV*DosePO.

In data set [4] the test system is primary rat hepatocytes. Nature of the data set: In vitro phospholipidosis protocol. The data set is classed as cell-based, Han Wistar rats. The method, then:
Assessment of a compounds potential to induce phospholipidosis was determined by an in vitro fluorescent assay which reports the accumulation of phospholipids in primary rat hepatocytes. Hepatocytes were isolated from Han Wistar rats by a 2-stage collagenase digest method. The hepatocytes were then plated on collagen coated 96-well plates in William's E medium. The cells were left to adhere for 1 hour then the media was replaced with a solution of 250 μg·ml^−1 collagen in Hepatozyme cell culture medium.
Cells were then cultured for 48 hours with the medium being changed at 24 hours. At 48 hours post isolation the medium was changed to Hepatozyme supplemented with the fluorescent phospholipid N-(6-tetramethylrhodaminethiocarbamoyl)-1,2-dihexadecanoyl-sn-glycero-3-phosphoethanolamine (DHPE-TRITC) (5 μg·ml^−1). At this time, test compounds were added to the hepatocytes at a range of concentrations in a serial dilution with a final concentration of 0.4% dimethylsulfoxide (used as solvent for test compounds). […]
Images of the hepatocytes were then acquired using an automated microscope platform (GE In Cell Analyser 3000). […] The quantified accumulation observed with test compounds was then normalised to a range of 0, representing the accumulation observed in cells exposed to vehicle only, and 1, representing cells exposed to 10 μM amiodarone. […]

For the compound `C[C@H]1CCC[C@@](O)(CNC(=O)c2c(Cl)ccc3nc(N4CCC(C)(O)C4)ccc23)C1` (single isomer, unassigned) [Example 4 - isomer 2], in data set [1], the IC50 was 10 nM. Besides, in data set [2], the IC50 was above 100000 nM and the “P2X7:hERG Ratio” value is recorded as >10,000.

Regarding `C[C@H]1CCC[C@@](O)(CNC(=O)c2c(Cl)ccc3nc(N4CC[C@H](O)C4)ccc23)C1` [Example 1, 6-Chloro-N-{[(1S,3S)-1-hydroxy-3-methylcyclohexyl]methyl}-2-[(3S)-3-hydroxypyrrolidin-1-yl]quinoline-5-carboxamide], the melting point was 222 °C. Besides, the IC50 in data set [1] was 7.94 nM. Also, in data set [2], the IC50 was above 100000 nM and the “P2X7:hERG Ratio” value is reported as >10,000.

Compound `C[C@H]1CCC[C@@](O)(CNC(=O)c2c(Cl)ccc3nc(N4CC[C@@H](O)C4)ccc23)C1` [Example 2, 6-Chloro-N-{[(1S,3S)-1-hydroxy-3-methylcyclohexyl]methyl}-2-[(3R)-3-hydroxypyrrolidin-1-yl]quinoline-5-carboxamide] gave a melting point of 222 to 223 °C. Further, the IC50 in data set [1] is 7.94 nM. In addition, in data set [2], the IC50 is above 100000 nM and the “P2X7:hERG Ratio” value is >10,000. In data set [3], this compound yielded a bioavailability of 59%. In data set [4] (lowest dose that caused >50% cell toxicity, primary rat hepatocytes), this compound displayed a minimum toxic concentration above 250 µM. In addition, the “phospholipid (DHPE-TRITC) accumulation” value in data set [4] (maximum test concentration of 250 uM, normalised 0 = vehicle, 1 = 10 μM amiodarone) is listed as “no measurable accumulation”.

Consider `C[C@H]1CCC[C@@](O)(CNC(=O)c2c(Cl)ccc3nc(N4CCC(O)CC4)ccc23)C1` [Example 3, 6-Chloro-N-{[(1S,3S)-1-hydroxy-3-methylcyclohexyl]methyl}-2-(4-hydroxypiperidin-1-yl)quinoline-5-carboxamide], for which the melting point was 120 °C (dec.). The IC50 in data set [1] was 7.94 nM. Further, in data set [2], the IC50 is above 100000 nM and the “P2X7:hERG Ratio” value is reported as >10,000.

For the compound `C[C@H]1CCC[C@@](O)(CNC(=O)c2c(Cl)ccc3nc(N4CCC(C)(O)C4)ccc23)C1` (stereo partly drawn) [Example 4, 6-Chloro-N-{[(1S,3S)-1-hydroxy-3-methylcyclohexyl]methyl}-2-(3-hydroxy-3-methylpyrrolidin-1-yl)quinoline-5-carboxamide], the melting point was 195 to 200 °C (dec.).

These data come from patent US7964616B2, “Compounds 679” (AstraZeneca AB, priority 2007, dated 2011).
